According to patent EP0446604A2, “Pyridine and related aza heterocycle derivatives as cardiovascular agents” (AMERICAN CYANAMID COMPANY, priority 1990, dated 1991):
Where a name gives a salt, the structure may show the parent alone. Values belong to the molecule of their own block, whether it stands above or below them.

What was measured:
[1] = test system: spontaneously hypertensive rats of the Okamoto strain; assay: Hypotensive activity in spontaneously hypertensive rats (method of Chan and Poorvin); type: in vivo; conditions: by gavage, 100 mg/kg or less, second identical dose 24 hours later, MABP measured 28 hours after initial dose, average MABP of the rats used 160±1.5 mm of mercury
Experimental: The novel compounds of the present invention are active hypotensive agents and were tested for hypotensive activity by the method of P.S. Chan and D. Poorvin, Clinical and Experimental Hypertension, 1 (6), 817-830 (1979). Male, 16 week old, spontaneously hypertensive rats of the Okamoto strain, from Taconic Farms, Germantown, New York, having an average mean arterial blood pressure of 160±1.5 mm of mercury, were used in the test. One to four rats were used per test compound. A rat is dosed by gavage with a test compound suspended in 2% pre-boiled starch at a concentration of 50 mg/ml, at a dose of 100 mg/kg of body weight or less, with 0.9% sodium chloride loading at a dose of 25 ml/kg of body weight. A second identical dose of the test compound, without sodium chloride loading is given 24 hours later. At 28 hours after the initial dose the mean arterial blood pressure (MABP) is measured. The procedure is repeated in a second and third rat when necessary. The results of this test on representative compounds of the present invention appear below in Table II.

[2] = target: T1, thromboxane synthetase enzyme (Rattus norvegicus, UniProt P49430); assay: Inhibition of thromboxane (TXB2) formation in washed rat platelets, TXB2 radioimmunoassay; type: biochemical, Okamoto-Aoki spontaneously hypertensive rats (SHR); conditions: Concentration 1x10^-4M, platelet suspension incubated 10 minutes at 37 °C
T1 construct: from tissue; host or cells: washed blood platelets from Okamoto-Aoki spontaneously hypertensive rats (SHR)
T1 sequence (P49430 1-533): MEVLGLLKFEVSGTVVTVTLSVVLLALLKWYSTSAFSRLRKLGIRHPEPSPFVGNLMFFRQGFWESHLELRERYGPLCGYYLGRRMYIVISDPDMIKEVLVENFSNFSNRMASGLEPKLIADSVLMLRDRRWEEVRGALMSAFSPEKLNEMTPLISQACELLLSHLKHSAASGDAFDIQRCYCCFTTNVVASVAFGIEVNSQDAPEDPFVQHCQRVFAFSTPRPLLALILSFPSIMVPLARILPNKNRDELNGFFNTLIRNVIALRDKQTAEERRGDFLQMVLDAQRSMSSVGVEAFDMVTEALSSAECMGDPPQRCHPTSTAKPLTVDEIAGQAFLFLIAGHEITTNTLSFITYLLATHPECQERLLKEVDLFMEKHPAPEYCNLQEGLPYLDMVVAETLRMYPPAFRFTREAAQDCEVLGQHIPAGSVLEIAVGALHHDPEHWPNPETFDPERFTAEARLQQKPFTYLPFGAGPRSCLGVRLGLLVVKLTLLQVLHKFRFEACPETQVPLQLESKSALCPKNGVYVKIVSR
Experimental: Under urethan anesthesia, […] of arterial blood from Okamoto-Aoki spontaneously hypertensive rats (SHR) (Taconic Farms, Germantown, NY) between 19 and 24 weeks in age is collected in one ml of 3.2% sodium citrate in a polystyrene tube. The blood is diluted with 3 ml of cold saline and centrifuged at room temperature for 15 minutes at 460xg. The platelet rich plasma (PRP) is separated. The platelets are isolated by centrifuging the PRP for 10 minutes at 1060xg and are washed in 4 ml of cold oxygenated Krebs phosphate buffer, pH 7.4. The chilled platelets, recovered from centrifuging at 800xg for 10 minutes, are resuspended in oxygenated Krebs phosphate buffer and diluted to contain 4.5-6.0 x 10⁴ platelets/µ1. The inhibition of thromboxane (TX) formation is studied by determining the concentration of thromboxane B₂ (TXB₂), the stable hydrolysis product of TXA₂. Assay samples, prepared on ice, contain 200 µ1 platelet suspension, 50 µ1 saline, and 50 µ1 vehicle (saline) or drug under study. The samples are incubated for 10 minutes at 37 °C in a metabolic shaker. The reaction is terminated by immersing the tubes in an ice bath and adding 50 µl of 0.5M citric acid. The samples are centrifuged for 10 minutes in a refrigerated centrifuge and the supernatants thus obtained are decanted and stored at -20 °C. The TXB₂ content for each sample is determined by a direct radioimmunoassay (RIA) utilizing a TXB₂ specific RIA kit purchased from New England Nuclear, Boston, MA and expressed as pg TXB₂ formed per minute per sample, from which the percent inhibition of TXB₂ formation is calculated.

[3] = test system: Male mice of the Swiss Webster Strain; assay: Potassium chloride-induced arrhythmia in anesthetized mice (survival); type: in vivo; conditions: Mus musculus, iv, Dose = 10 mg/kg i.v.; potassium chloride 62.5 mg/kg i.v. bolus 5, 15 or 30 minutes after drug; observed 15 minutes; read-out: KCl #Mice Surviving #Mice Tested (converted)
From the text: (§1) Intravenous administration of high doses of calcium or potassium chloride in animals produces cardiac arrhythmias, cardiac fibrillation and cardiac arrest. Any agent that can prevent these events is considered an antiarrhythmic/antifibrillatory agent. (Meth. and Find Exptl. Clin Pharmacol.2:223-252(1980); Pharmacol, Ther. 24:401-433 (1984); Experimental Cardiac and Antiarrhythmic Drugs, L. Szekeres and Gy. J. Dapp, Akademiai Kiado Preso, Budapest, 9-448 (1971).)
(§2) The method employed is as follows: Male mice of the Swiss Webster Strain (Charles River, Wilmington, MA) weighing 25-35 g are anesthetized with ethyl carbamate (urethan) (1.5g/kg body weight i.p.). A 25-gauge needle attached to PE-20 tubing is inserted into a caudal vein for drug administration. The lead II ECG is recorded by needle electrodes placed subcutaneously in the limbs. All data is collected on a Gould Brush recorder. Animals are observed 5 minutes before drug administration. A 5, 15, or 30 minute period following drug administration is allowed before the bolus injection of calcium chloride, 200 mg/kg i.v. or potassium chloride, 62.5 mg/kg i.v. Control mice receive 4 ml/kg of 0.9% sodium chloride i.v. Mice are observed an additional 15 minutes for arrhythmias, fibrillation, survival or death. Any compound at a dose of less than 20 mg/kg i.v. that protects 3 out of 6 mice from cardiac death in either the potassium or calcium chloride test, is considered active.

[4] = test system: Male mice of the Swiss Webster Strain; assay: Calcium chloride-induced arrhythmia in anesthetized mice (survival); type: in vivo; conditions: Mus musculus, iv, Dose = 10 mg/kg i.v.; calcium chloride 200 mg/kg i.v. bolus 5, 15 or 30 minutes after drug; observed 15 minutes; read-out: CaCl2 #Mice Surviving #Mice Tested (converted)
From the text: as §1, §2

SMILES: O=[N+]([O-])c1ccc(NCCCn2ccnc2)nc1 [Example 1, N-[3-(1H-Imidazol-1-yl)propyl]-5-nitro-2-pyridinamine,(Z)-2-butenedioate (1:1)]
Avg. MABP in mm Hg (No. of Rats) ([1]; 100 mg/kg): 121 (4) mm Hg

inhibition at 100 µM [2]: 79%
SMILES: Cc1ccc(C#N)c(NCCCn2ccnc2)n1 [Example 3, 2-[[3-(1H-Imidazol-1-yl)propyl]amino]-6-methyl-3-pyridinecarbonitrile]
Avg. MABP in mm Hg (No. of Rats) [1]: 80 (2) mm Hg

inhibition at 100 µM [2]: 98%
SMILES: Cc1cc(NCCCn2ccnc2)nc2ccccc12 [Example 6, N-[3-(1H-Imidazol-1-yl)propyl]-4-methyl-2-quinolinamine]
Avg. MABP in mm Hg (No. of Rats) [1]: 100 (3) mm Hg

SMILES: O=[N+]([O-])c1ccc(NCCCn2ccnc2)nc1 [Example 11, N-[3-(1H-imidazol-1-yl)propyl]-5-nitro-2-pyridinamine]
responders at 10 mg/kg [3]: 50% | responders at 10 mg/kg [4]: 0% | Avg. MABP in mm Hg (No. of Rats) ([1]; 100 mg/kg): 119 (2) mm Hg

inhibition at 100 µM [2]: 84%
SMILES: c1ccc2c(NCCCn3ccnc3)nccc2c1 [Example 14, N-[3-(1H-Imidazol-1-yl)propyl]-1-isoquinolinamine]
Avg. MABP in mm Hg (No. of Rats) [1]: 121 (3) mm Hg

inhibition at 100 µM [2]: 97%
SMILES: COc1ccc2nc(NCCCn3ccnc3)cc(C)c2c1 [Example 21, N-[3-(1H-Imidazol-1-yl)propyl]-6-methoxy-4-methyl-2-quinolinamine]
Avg. MABP in mm Hg (No. of Rats) [1]: 110 (2) mm Hg

inhibition at 100 µM [2]: 91%
SMILES: c1cn(CCCNc2ccc3sccc3n2)cn1 [Example 62, N-[3-(1H-Imidazol-1-yl)propyl]thieno[3,2-b]-pyridin-5-amine]
Avg. MABP in mm Hg (No. of Rats) [1]: 105 (2) mm Hg

SMILES: N#Cc1cc2ccccc2nc1NCCCn1ccnc1 [Example 82, 2-[[3-(1H-Imidazol-1-yl)propyl]amino]-3-quinolinecarbonitrile]
Avg. MABP in mm Hg (No. of Rats) [1]: 94 (2) mm Hg

SMILES: Cc1cc(NCCC(C)n2ccnc2)nc2ccccc12 (stereo not drawn) [Example 87, N-[3-(1H-Imidazol-1-yl)butyl]-4-methyl-2-quinolinamine]
Avg. MABP in mm Hg (No. of Rats) [1]: 111 (2) mm Hg

SMILES: Cc1ccc(C#N)c(NCCCCCn2ccnc2)n1 [Example 90, 2-[[5-(1H-Imidazol-1-yl)pentyl]amino]-6-methyl-3-pyridinecarbonitrile]
responders at 10 mg/kg [3]: 50% | responders at 10 mg/kg [4]: 0% | Avg. MABP in mm Hg (No. of Rats) [1]: 116 (2) mm Hg

SMILES: Cc1cc(NCCCCn2ccnc2)nc2ccccc12 [Example 101, N-[4-(1H-Imidazol-1-yl)butyl]-4-methyl-2-quinolinamine]
Avg. MABP in mm Hg (No. of Rats) [1]: 96 (2) mm Hg

SMILES: Cc1cc(NCCCCc2cccnc2)nc2ccccc12 [Example 103, 4-Methyl-N-4-(3-pyridinylbutyl)-2-quinolinamine, dihydrochloride]
Avg. MABP in mm Hg (No. of Rats) [1]: 87 (2) mm Hg

SMILES: c1ccc2c(c1)nc(NCCCCn1ccnc1)c1ccccc12 [Example 104, N-[4-(1H-Imidazol-1-yl)butyl]-6-phenanthridinamine]
Avg. MABP in mm Hg (No. of Rats) [1]: 93 (1) mm Hg

SMILES: c1cncc(CCCCNc2nccc3ccccc23)c1 [Example 105, N-[4-(3-Pyridinyl)butyl]-1-isoquinolinamine, dihydrochloride]
responders at 10 mg/kg [3]: 66.7% | inhibition at 100 µM [2]: 97% | responders at 10 mg/kg [4]: 50%

inhibition at 100 µM [2]: 97%
SMILES: COc1ccc2nc(NCCCCc3cccnc3)cc(C)c2c1 [Example 106, 6-Methoxy-4-methyl-N-[4-(3-pyridinyl)butyl]-2-quinolinamine]
Avg. MABP in mm Hg (No. of Rats) [1]: 120 (2) mm Hg

SMILES: Cc1cc(NCCCCc2cccnc2)nc2c(C)cccc12 [Example 107, 4,8-Dimethyl-N-[4-(3-pyridinyl)butyl]-2-quinolinamine]
responders at 10 mg/kg [3]: 83.3% | inhibition at 100 µM [2]: 99% | responders at 10 mg/kg [4]: 0%

SMILES: Cc1ccc(C#N)c(NCCCCc2cccnc2)n1 [Example 108, 6-Methyl-2-[[4-(3-pyridinyl)butyl]amino]-3-pyridinecarbonitrile]
responders at 10 mg/kg [3]: 83.3% | inhibition at 100 µM [2]: 96% | responders at 10 mg/kg [4]: 66.7%
